The nature of data set [1]: Experimental logP by HPLC method. It is filed as physicochemical. The settings on record: for chromatographic logP: read-out: Exp. logP.
The nature of data set [2]: Solubility in Phosphate Buffer at pH 7.4. The format is physicochemical. The settings on record: for solubility compared to sEH inhibitors with hydrophobic alkyl group at R7: in words.
The target of data set [3] is T1, human sEH (Homo sapiens (Human), UniProt P34913). Briefly: FRET-displacement assay (Ki). It is filed as binding. The settings on record: for Ki: affinity purified recombinant human sEH, FRET-displacement.
A further data set has as its system PTZ induced seizure. Briefly: Pentylenetetrazol (PTZ) induced seizure model. The format is in vivo, mice. The method, then: To investigate the central nervous system penetration efficacy of sEH inhibitors a standard acute test involving the administration of pro-convulsant pentylenetetrazol (PTZ) was employed. In the subcutaneous pentylenetetrazol (PTZ) test 80 mg/kg of PTZ is administered by subcutaneous route, time to onset of first clonic seizure (clonus), time to tonic hind limb extension and lethality (tonus) are monitored for a duration of 30 min. Inhibitors of sEH were completely dissolved using PEG400 as a vehicle to give clear solutions. Inhibitors or vehicle were administered by intraperitoneal route 1 h prior to pro-convulsant at a single discriminating dose based on earlier data. This dose of PTZ produces 100% lethality within 30 min upon administration.
PTZ is a chemical which induces seizures. This assay is considered highly translatable from mice to humans.

The nature of data set [4]: pH titration of solubility. The note with it: FIG. 9. It is filed as physicochemical.
A short description of data set [5]: Solubility in Acetate Buffer at pH 3. It is filed as physicochemical. The note with it: for solubility: aqueous buffer, read-out: Sol (ug/mL) at pH3.
The target in data set [6] is T1, human sEH. The experiment in a line: koff measurement, enzymatic t1/2 (residence time). The settings on record: time for half of the drug to dissociate from recombinant affinity purified human sEH.
Where [7] appears, read: HPLC method calibrated with eLogP of 4 selected inhibitors determined by shake-flask method.

Values after ≈ are worked out from the molar mass of the structure shown. Read-outs that look alike come from different tables or passages of the source.

T1 sequence (P34913 whole entry): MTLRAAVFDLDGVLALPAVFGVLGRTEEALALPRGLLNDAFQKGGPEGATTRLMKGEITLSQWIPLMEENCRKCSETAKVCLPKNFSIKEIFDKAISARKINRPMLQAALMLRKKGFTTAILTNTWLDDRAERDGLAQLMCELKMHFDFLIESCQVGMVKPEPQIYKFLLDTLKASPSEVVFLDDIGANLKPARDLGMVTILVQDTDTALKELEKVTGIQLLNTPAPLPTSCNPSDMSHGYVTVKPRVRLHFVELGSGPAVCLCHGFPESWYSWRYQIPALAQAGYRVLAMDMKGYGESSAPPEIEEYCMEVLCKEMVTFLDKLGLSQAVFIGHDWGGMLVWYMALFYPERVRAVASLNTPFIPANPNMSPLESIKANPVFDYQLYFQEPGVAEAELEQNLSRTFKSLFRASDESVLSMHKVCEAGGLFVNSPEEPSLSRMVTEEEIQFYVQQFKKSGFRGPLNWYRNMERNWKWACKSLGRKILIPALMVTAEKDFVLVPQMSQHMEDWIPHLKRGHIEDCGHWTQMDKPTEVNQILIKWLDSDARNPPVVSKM

For `CC[C@H](C)C(=O)N1CCC(NC(=O)Nc2ccc(OC(F)(F)F)c(F)c2)CC1` [Compound 26, (S)-1-(3-fluoro-4-(trifluoromethoxy)phenyl)-3-(1-(2-methylbutanoyl)piperidin-4-yl)urea], the chromatographic logP in data set [1] (setting [7]) was 4.16. On to `O=C(Nc1ccc(C(F)(F)F)cc1)NC1CCN(C(=O)C2=COCC2)CC1` [Compound 12, 1-(1-(4,5-dihydrofuran-3-carbonyl)piperidin-4-yl)-3-(4-(trifluoromethyl)phenyl)urea], for which the chromatographic logP in data set [1] (setting [7]) was found to be 3.37. On to `CC(=O)N1CCC(NC(=O)NC23CC4CC(CC(C4)C2)C3)CC1` [APAU, reference compound], for which the solubility in data set [2] (aqueous buffer, Phosphate Buffer at pH 7.4) was found to be 277 µg/mL (≈ 867 µM). In addition, the chromatographic logP in data set [1] is 1.5. For the compound `CC(C)C(=O)N1CCC(NC(=O)Nc2ccc(C(F)(F)F)cc2)CC1` [Compound 2389, reference compound], the “Exp. logP” value in data set [1] is recorded as 3.37. For the compound `O=C(Nc1ccc(OC(F)(F)F)c(F)c1)NC1CCN(C(=O)N2CCC(NC(=O)Nc3ccc(OC(F)(F)F)c(F)c3)CC2)CC1` [Compound 39], the Ki on human sEH [3] was determined as 10.1 ± 1.8 nM. Consider `CC[C@H](C)C(=O)N1CCC(NC(=O)Nc2ccc(OC(F)(F)F)c(Br)c2)CC1` [Compound 45], for which the chromatographic logP in data set [1] (setting [7]) was 8.07. Consider `CCOC(=O)N1CCC(NC(=O)Nc2ccc(C(F)(F)F)c(F)c2)CC1` [Compound 41, ethyl 4-(3-(3-fluoro-4-(trifluoromethyl)phenyl)ureido)piperidine-1-carboxylate], for which, in data set [1] (setting [7]), the chromatographic logP came to 5.46.

On to `O=C(Nc1ccc(OC(F)(F)F)c(F)c1)NC1CCN(C(=O)C2CCOCC2)CC1` [Compound 29, 1-(3-fluoro-4-(trifluoromethoxy)phenyl)-3-(1-(tetrahydro-2H-pyran-4-carbonyl)piperidin-4-yl)urea], for which, in data set [2], the “solubility compared to sEH inhibitors with hydrophobic alkyl group at R7” value is reported as “remarkably enhance the solubility”. The chromatographic logP in data set [1] (setting [7]) turned out to be 3.73. In addition, the “onset of the tonic phase of seizure” value with PTZ induced seizure (0.3 mpk, wild type Swiss mice, subcutaneous PTZ, p<0.05) was “delayed onset of the tonic phase of seizure”. Moreover, the “protection from convulsions and associated lethality” value with PTZ induced seizure (mice, PTZ 80 mg/kg subcutaneous, inhibitor 1 h prior) was “protect mice from convulsions and associated lethality”. Moreover, the “solubility in pH titration” value in data set [4] is “increases dramatically when the pH is below 4”. In addition, the solubility in data set [5] (Acetate Buffer at pH 3) turned out to be 206 µg/mL (≈ 475 µM). As to `O=C(Nc1ccc(OC(F)(F)F)cc1)NC1CCN(C(=O)C2CCOCC2)CC1` [Compound 1, 1-(1-(tetrahydro-2H-pyran-4-carbonyl)piperidin-4-yl)-3-(4-(trifluoromethoxy)phenyl)urea], the chromatographic logP in data set [1] is 3.26.

With `O=C(Nc1ccc(C(F)(F)F)cc1)NC1CCN(C(=O)c2cc[nH]c2)CC1` [Compound 16, 1-(1-(1H-pyrrole-3-carbonyl)piperidin-4-yl)-3-(4-(trifluoromethyl)phenyl)urea], the chromatographic logP in data set [1] (setting [7]) was determined as 3.26. For `CCOC(=O)N1CCC(NC(=O)Nc2ccc(OC(F)(F)F)c(F)c2)CC1` [Compound 40, ethyl 4-(3-(3-fluoro-4-(trifluoromethoxy)phenyl)ureido)piperidine-1-carboxylate], the chromatographic logP in data set [1] (setting [7]) came to 5.94. Same read-out and setting: in the case of `O=C(Nc1ccc(OC(F)(F)F)c(F)c1)NC1CCN(C(=O)N2CCOCC2)CC1` [Compound 43, 1-(3-fluoro-4-(trifluoromethoxy)phenyl)-3-(1-(morpholine-4-carbonyl)piperidin-4-yl)urea] it was 3.93. On to `O=C(Nc1ccc(OC(F)(F)F)c(F)c1)NC1CCN(C(=O)C2CCCOC2)CC1` (stereo not shown) [Compound 27], for which, in data set [2], the “solubility compared to sEH inhibitors with hydrophobic alkyl group at R7” value is given as “remarkably enhance the solubility”. Besides, in data set [5] (Acetate Buffer at pH 3), the solubility amounted to 522 µg/mL (≈ 1200 µM). For the same compound, the “solubility at pH 3 compared to APAU” value in data set [5] (pH 3, in words) is on record as “much better than the most soluble 1,3-disubstituted urea sEH inhibitors”.

`O=C(Nc1ccc(C(F)(F)F)c(F)c1)NC1CCN(C(=O)C2CCCOC2)CC1` (stereo not shown) [Compound 35, 1-(3-fluoro-4-(trifluoromethyl)phenyl)-3-(1-(tetrahydro-2H-pyran-3-carbonyl)piperidin-4-yl)urea]: in data set [1] (setting [7]), the chromatographic logP came out at 3.84. As to `CC(C)C(=O)N1CCC(NC(=O)Nc2ccc(OC(F)(F)F)cc2)CC1` [Compound 2422, reference compound], the “Exp. logP” value in data set [1] is on record as 3.56.

For `CC[C@H](C)C(=O)N1CCC(NC(=O)Nc2ccc(OC(F)(F)F)c(C(F)(F)F)c2)CC1` [Compound 46, (S)-1-(1-(2-methylbutanoyl)piperidin-4-yl)-3-(4-(trifluoromethoxy)-3-(trifluoromethyl)phenyl)urea], in data set [1] (setting [7]), the chromatographic logP came to 9.02. Turning to `CC[C@H](C)C(=O)N1CCC(NC(=O)Nc2ccc(OC(F)(F)F)c(OC(F)(F)F)c2)CC1` [Compound 47], in data set [1] (setting [7]), the chromatographic logP stood at 10.6. For the compound `CC[C@H](C)C(=O)N1CCC(NC(=O)Nc2ccc(OC(F)(F)F)c(Cl)c2)CC1` [Compound 44, (S)-1-(3-chloro-4-(trifluoromethoxy)phenyl)-3-(1-(2-methylbutanoyl)piperidin-4-yl)urea], on human sEH [6], the “t1/2 (min) human sEH” value stood at 10 min. For the same compound, the chromatographic logP in data set [1] (setting [7]) is 7.7. As for `O=C(Nc1ccc(OC(F)(F)F)c(F)c1)Nc1ccc(OC(F)(F)F)c(F)c1` [Compound 38], the Ki on human sEH [3] was 1.95 ± 0.3 nM. Regarding `O=C(Nc1ccc(C(F)(F)F)c(F)c1)NC1CCN(C(=O)[C@@H]2CCOC2)CC1` [Compound 33, (R)-1-(3-fluoro-4-(trifluoromethyl)phenyl)-3-(1-(tetrahydrofuran-3-carbonyl)piperidin-4-yl)urea], in data set [1] (setting [7]), the chromatographic logP turned out to be 3.41. For “1-(3-fluoro-4-(trifluoromethyl)phenyl)-3-(1-isobutyrylpiperidin-4-yl)urea [Compound 20]”, in data set [5] (Acetate Buffer at pH 3), the “Sol (ug/mL) at pH3” value was determined as 6 ug/mL. Turning to `O=C(Nc1ccc(OC(F)(F)F)c(F)c1)NC1CCN(C(=O)C2(C(F)(F)F)CC2)CC1` [Compound 30], the chromatographic logP in data set [1] (setting [7]) worked out at 5.94. `CCC(=O)N1CCC(NC(=O)Nc2ccc(C(F)(F)F)c(F)c2)CC1` [Compound 31, 1-(3-fluoro-4-(trifluoromethyl)phenyl)-3-(1-propionylpiperidin-4-yl)urea]: the chromatographic logP in data set [1] (setting [7]) was 3.76. Take “2-(1-(cyclopropanecarbonyl)piperidin-4-yl)-N-(3-fluoro-4-(trifluoromethoxy)phenyl)acetamide [Compound 48]”: in data set [1], the “Exp. logP” value came out at 5.11. Take `O=C(Nc1ccc(C(F)(F)F)c(F)c1)NC1CCN(C(=O)C2(C(F)(F)F)CC2)CC1` [Compound 36, 1-(3-fluoro-4-(trifluoromethyl)phenyl)-3-(1-(1-(trifluoromethyl)cycloproropane-1-carbonyl)piperidin-4-yl)urea]: the chromatographic logP in data set [1] (setting [7]) came out at 5.52. Moreover, at human sEH [3] (Ki of original inhibitor / Ki of meta-F substituted inhibitor), the “Potency Enhancement” value is 1.

As for `O=C(Nc1ccc(C(F)(F)F)cc1)NC1CCN(C(=O)C2CCCOC2)CC1` (stereo not shown) [Compound 15, 1-(1-(tetrahydro-2H-pyran-3-carbonyl)piperidin-4-yl)-3-(4-(trifluoromethyl)phenyl)urea], the chromatographic logP in data set [1] (setting [7]) came to 3.41. Regarding `Cc1occc1C(=O)N1CCC(NC(=O)Nc2ccc(OC(F)(F)F)cc2)CC1` [Compound 6, 1-(1-(2-methylfuran-3-carbonyl)piperidin-4-yl)-3-(4-(trifluoromethoxy)phenyl)urea], the chromatographic logP in data set [1] was 4.3.

`O=C(Nc1ccc(C(F)(F)F)c(F)c1)NC1CCN(C(=O)C2CCOCC2)CC1` [Compound 37, 1-(3-fluoro-4-(trifluoromethyl)phenyl)-3-(1-(tetrahydro-2H-pyran-4-carbonyl)piperidin-4-yl)urea]: in data set [1] (setting [7]), the chromatographic logP stood at 3.52. In the case of `O=C(Nc1ccc(C(F)(F)F)c(F)c1)NC1CCN(C(=O)C2CC2)CC1` [Compound 32, 1-(1-(cyclopropanecarbonyl)piperidin-4-yl)-3-(3-fluoro-4-(trifluoromethyl)phenyl)urea], the chromatographic logP in data set [1] (setting [7]) was found to be 3.94.

With `O=C(Nc1ccc(OC(F)(F)F)c(F)c1)NC1CCN(C(=O)C2CC2)CC1` [Compound 24, 1-(1-(cyclopropanecarbonyl)piperidin-4-yl)-3-(3-fluoro-4-(trifluoromethoxy)phenyl)urea], in data set [1], the chromatographic logP was 4.19.

The term Ki denotes the equilibrium dissociation constant of an inhibitor or competing ligand from its target.

The record behind these values is patent US10377744B2, “Potent soluble epdxide hydrolase inhibitors” (Eicosis, LLC, priority 2014, dated 2019).
